Test results as given in ChEMBL document CHEMBL1201862, “PubChem BioAssay data set” (2004).
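Exposure lasted 48 hours, with cells grown in 96-well plates and compounds tested at five concentrations. At the GI50, growth is halved.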 The source made the active and inactive calls. Rule as the data show it: active = GI50 up to about 1.1 µM and inactive = higher.

Columns and labels:
Assay in all cases: NCI tumour cell line growth inhibition, 48 h
K562 = tested on: K562
RPMI-8226 = tested on: RPMI-8226
CCRF-CEM = tested on: CCRF-CEM
786-0 = tested on: 786-0
NCI-H522 = tested on: NCI-H522
SF-539 = tested on: SF-539
Malme-3M = tested on: Malme-3M
SK-OV-3 = tested on: SK-OV-3
ACHN = tested on: ACHN
UO-31 = tested on: UO-31
LOX IMVI = tested on: LOX IMVI
NCI-H460 = tested on: NCI-H460
HCT-116 = tested on: HCT-116
SN12C = tested on: SN12C
COLO 205 = tested on: COLO 205

Compound	GI50 (K562)	GI50 (RPMI-8226)	GI50 (CCRF-CEM)	GI50 (786-0)	GI50 (NCI-H522)	GI50 (SF-539)	GI50 (Malme-3M)	GI50 (SK-OV-3)	GI50 (ACHN)	GI50 (UO-31)	GI50 (LOX IMVI)	GI50 (NCI-H460)	GI50 (HCT-116)	GI50 (SN12C)	GI50 (COLO 205)
O=C(NCCCC/N=c1/cccccc1NCCCCNC(=O)OCc1ccccc1)OCc1ccccc1	10.1 µM (inactive)	13 µM (inactive)	16.6 µM (inactive)	16.4 µM (inactive)	17.2 µM (inactive)	16.3 µM (inactive)	20.4 µM (inactive)	20.5 µM (inactive)	23.2 µM (inactive)	7.43 µM (inactive)	16.4 µM (inactive)	11.5 µM (inactive)	9.98 µM (inactive)	18.8 µM (inactive)	–
COc1ccc(C(Cl)=C(c2ccc(OCCN(C)C)cc2)c2ccc(OCCN(C)C)cc2)cc1	1.37 µM (inactive)	1.62 µM (inactive)	1.16 µM (inactive)	1.27 µM (inactive)	1.57 µM (inactive)	1.57 µM (inactive)	1.81 µM (inactive)	2.53 µM (inactive)	1.82 µM (inactive)	1.58 µM (inactive)	–	1.82 µM (inactive)	1.13 µM (inactive)	2.65 µM (inactive)	1.39 µM (inactive)
OCC1OC2c3ccccc3COC2C1OCc1ccccc1 (stereo not given)	96.4 µM (inactive)	> 100 µM (inactive)	–	> 100 µM (inactive)	70.1 µM (inactive)	–	> 100 µM (inactive)	> 100 µM (inactive)	> 100 µM (inactive)	> 100 µM (inactive)	–	> 100 µM (inactive)	> 100 µM (inactive)	> 100 µM (inactive)	> 100 µM (inactive)
Cn1c(=O)c2c(nc3n2CCC(=O)N3)n(C)c1=O	> 100 µM (inactive)	–	> 100 µM (inactive)	> 100 µM (inactive)	> 100 µM (inactive)	> 100 µM (inactive)	> 100 µM (inactive)	> 100 µM (inactive)	> 100 µM (inactive)	> 100 µM (inactive)	> 100 µM (inactive)	> 100 µM (inactive)	–	> 100 µM (inactive)	> 100 µM (inactive)
CC(N)Cc1ccc(Cl)cc1 (stereo not given)	50.6 µM (inactive)	> 100 µM (inactive)	61.2 µM (inactive)	> 100 µM (inactive)	> 100 µM (inactive)	> 100 µM (inactive)	> 100 µM (inactive)	> 100 µM (inactive)	> 100 µM (inactive)	59.4 µM (inactive)	> 100 µM (inactive)	50 µM (inactive)	41 µM (inactive)	> 100 µM (inactive)	> 100 µM (inactive)
O=C1C=CC2(CCCCCCC2=O)CC1 (stereo not given)	–	> 100 µM (inactive)	> 100 µM (inactive)	> 100 µM (inactive)	> 100 µM (inactive)	> 100 µM (inactive)	> 100 µM (inactive)	> 100 µM (inactive)	> 100 µM (inactive)	> 100 µM (inactive)	44.9 µM (inactive)	> 100 µM (inactive)	> 100 µM (inactive)	> 100 µM (inactive)	57 µM (inactive)
Cc1ccc(C)c(NC(=O)CC/C(=N\NC(=O)c2c(O)ccc3ccccc23)C(C)C(=O)c2ccc(O)cc2)c1 (stereo not given)	32.8 µM (inactive)	94.4 µM (inactive)	15.2 µM (inactive)	28.5 µM (inactive)	19.9 µM (inactive)	30.7 µM (inactive)	34.8 µM (inactive)	–	25.2 µM (inactive)	17.9 µM (inactive)	18.7 µM (inactive)	21.7 µM (inactive)	57.4 µM (inactive)	38.6 µM (inactive)	25.2 µM (inactive)
CCOC(=O)C(CCC(N)=O)(CCC(=O)OC)C(=O)OCC	> 100 µM (inactive)	> 100 µM (inactive)	–	> 100 µM (inactive)	> 100 µM (inactive)	> 100 µM (inactive)	> 100 µM (inactive)	> 100 µM (inactive)	> 100 µM (inactive)	> 100 µM (inactive)	> 100 µM (inactive)	> 100 µM (inactive)	> 100 µM (inactive)	> 100 µM (inactive)	> 100 µM (inactive)
O=C1C2CC=CCC2C(=O)C12CCc1ccccc12 (stereo not given)	> 100 µM (inactive)	–	> 100 µM (inactive)	> 100 µM (inactive)	–	–	> 100 µM (inactive)	> 100 µM (inactive)	> 100 µM (inactive)	> 100 µM (inactive)	> 100 µM (inactive)	> 100 µM (inactive)	–	> 100 µM (inactive)	> 100 µM (inactive)
Brc1cc(C2OCCCO2)ccc1OCc1ccccc1	34.5 µM (inactive)	25.9 µM (inactive)	41.2 µM (inactive)	40.4 µM (inactive)	26.9 µM (inactive)	64.3 µM (inactive)	31.8 µM (inactive)	> 100 µM (inactive)	73.6 µM (inactive)	52.4 µM (inactive)	25.8 µM (inactive)	50.9 µM (inactive)	–	> 100 µM (inactive)	27.4 µM (inactive)
O=C(Cc1nc2ccccc2s1)NC12CC3CC(CC(C3)C1)C2	> 100 µM (inactive)	–	> 100 µM (inactive)	> 100 µM (inactive)	> 100 µM (inactive)	> 100 µM (inactive)	> 100 µM (inactive)	> 100 µM (inactive)	> 100 µM (inactive)	> 100 µM (inactive)	> 100 µM (inactive)	> 100 µM (inactive)	> 100 µM (inactive)	> 100 µM (inactive)	–
COc1ccc(Nc2nc3ccc(C(F)(F)F)cc3nc2-c2ccccc2)cc1OC	31.4 µM (inactive)	–	25.1 µM (inactive)	23.3 µM (inactive)	24.7 µM (inactive)	42.6 µM (inactive)	51.9 µM (inactive)	> 100 µM (inactive)	28.6 µM (inactive)	15.5 µM (inactive)	16.1 µM (inactive)	16.4 µM (inactive)	27.4 µM (inactive)	38 µM (inactive)	27.9 µM (inactive)
CN(C)CCNC(=O)c1cccc2[nH]c(-c3cccnc3)nc12	27.9 µM (inactive)	–	28.4 µM (inactive)	22.9 µM (inactive)	–	17.7 µM (inactive)	–	22.6 µM (inactive)	16.9 µM (inactive)	17.8 µM (inactive)	18.1 µM (inactive)	19.3 µM (inactive)	9.55 µM (inactive)	18.2 µM (inactive)	14.5 µM (inactive)
Cc1ccc(/N=C2\N=C(N3CC(C)OC(C)C3)c3ccccc32)cc1 (stereo not given)	34 µM (inactive)	27.2 µM (inactive)	23.3 µM (inactive)	34.4 µM (inactive)	> 10 µM (inactive)	17.9 µM (inactive)	31.2 µM (inactive)	–	28.6 µM (inactive)	21.3 µM (inactive)	28.2 µM (inactive)	27.2 µM (inactive)	20.2 µM (inactive)	34.5 µM (inactive)	40.3 µM (inactive)
CCOC(=O)NC(=O)c1cn(CCN2CCN(C(=O)CNC(=O)CNC(=O)Cn3cc(C(=O)NC(=O)OCC)c(=O)[nH]c3=O)CC2)c(=O)[nH]c1=O	> 100 µM (inactive)	–	> 100 µM (inactive)	> 100 µM (inactive)	> 100 µM (inactive)	> 100 µM (inactive)	> 100 µM (inactive)	> 100 µM (inactive)	> 100 µM (inactive)	> 100 µM (inactive)	> 100 µM (inactive)	> 100 µM (inactive)	> 100 µM (inactive)	> 100 µM (inactive)	> 100 µM (inactive)
NC1(CCCCCCCCCCC(=O)O)CNCCNCCNCCNC1	33.8 µM (inactive)	37.4 µM (inactive)	22.6 µM (inactive)	36.7 µM (inactive)	55.5 µM (inactive)	54.1 µM (inactive)	78.3 µM (inactive)	63.8 µM (inactive)	55.3 µM (inactive)	> 100 µM (inactive)	–	26.6 µM (inactive)	28.1 µM (inactive)	23.8 µM (inactive)	15.6 µM (inactive)
COc1ccc(CNc2cnc3ccc(N)cc3n2)cc1	> 100 µM (inactive)	81.8 µM (inactive)	49.2 µM (inactive)	> 100 µM (inactive)	> 100 µM (inactive)	> 100 µM (inactive)	> 100 µM (inactive)	–	> 100 µM (inactive)	> 100 µM (inactive)	> 100 µM (inactive)	> 100 µM (inactive)	0.0622 µM (active)	> 100 µM (inactive)	0.064 µM (active)
COc1ccc2c(c1)C(=O)N1CCOC1C2C(=O)O (stereo not given)	> 100 µM (inactive)	> 100 µM (inactive)	> 100 µM (inactive)	> 100 µM (inactive)	> 100 µM (inactive)	> 100 µM (inactive)	–	> 100 µM (inactive)	> 100 µM (inactive)	> 100 µM (inactive)	> 100 µM (inactive)	> 100 µM (inactive)	> 100 µM (inactive)	> 100 µM (inactive)	–
CC(O)CNC(=O)C(C)Oc1ccc(OCC2CCCCC2)cc1 (stereo not given)	> 100 µM (inactive)	–	> 100 µM (inactive)	> 100 µM (inactive)	> 100 µM (inactive)	> 100 µM (inactive)	> 100 µM (inactive)	> 100 µM (inactive)	> 100 µM (inactive)	> 100 µM (inactive)	> 100 µM (inactive)	> 100 µM (inactive)	> 100 µM (inactive)	> 100 µM (inactive)	–
CN(C)c1ccc(/C=C(/C(=O)O)c2csc(-c3nc(/C(=C\c4ccc(N(C)C)cc4)C(=O)O)cs3)n2)cc1	41.7 µM (inactive)	46.1 µM (inactive)	16.7 µM (inactive)	46.2 µM (inactive)	–	> 100 µM (inactive)	> 100 µM (inactive)	> 100 µM (inactive)	> 100 µM (inactive)	60.3 µM (inactive)	73.8 µM (inactive)	> 100 µM (inactive)	> 100 µM (inactive)	> 100 µM (inactive)	93.3 µM (inactive)
